Like-named read-outs stand apart in the source and are kept apart here.
Key:
[1] = molecular target: T1, RORγt (Homo sapiens, UniProt P51449); assay: RORγt binding test using fluorescent-labeled cholesterol (TR-FRET); settings: read-out: Binding inhibitory rate of fluorescent-labeled cholesterol to RORγt at test compound 1 μM (%)
T1 sequence (P51449 1-497 isoform P51449-2): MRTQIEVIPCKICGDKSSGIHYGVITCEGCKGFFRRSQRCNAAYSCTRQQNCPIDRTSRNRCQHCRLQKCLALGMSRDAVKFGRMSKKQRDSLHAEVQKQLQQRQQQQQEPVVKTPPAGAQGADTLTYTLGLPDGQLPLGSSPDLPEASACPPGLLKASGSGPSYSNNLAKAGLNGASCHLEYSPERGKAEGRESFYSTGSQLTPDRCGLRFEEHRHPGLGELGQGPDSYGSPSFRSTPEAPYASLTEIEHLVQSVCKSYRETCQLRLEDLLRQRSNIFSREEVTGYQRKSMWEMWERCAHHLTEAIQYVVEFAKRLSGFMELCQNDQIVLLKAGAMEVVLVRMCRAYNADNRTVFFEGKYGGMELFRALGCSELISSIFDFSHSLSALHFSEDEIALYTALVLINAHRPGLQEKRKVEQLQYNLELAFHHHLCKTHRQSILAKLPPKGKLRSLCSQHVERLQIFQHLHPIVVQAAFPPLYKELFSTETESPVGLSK
Procedure: RORγt Binding Test Using Fluorescent-labeled Cholesterol
The binding activity of the test compound to RORγt was measured by a time resolved fluorescence resonance energy transfer method (TR-FRET) utilizing histidine-tagged RORγt, fluorescent-labeled cholesterol (BODIPY-cholesterol, AVIVA), and terbium-labeled anti-histidine tag antibody (Invitrogen). First, a test compound diluted with an assay buffer (20 mM Tris-HCl (pH 7.5), 100 mM NaCl, 1 mM DTT, 0.1% BSA) was added to a 384 well plate by 3 μL. Then, RORγt diluted with an assay buffer to 240 nM was added by 3 μL, after which fluorescent-labeled cholesterol diluted with the assay buffer to 12 μM was added by 3 μL, and the mixture was stood at room temperature for 20 min. Thereafter, a terbium-labeled anti-histidine tag antibody diluted with the assay buffer to 8 nM was added by 3 μL. The mixture was stood at room temperature for 20 min, and fluorescence intensity (excitation wavelength 320 nm, fluorescence wavelength 520 nm, delay time 100 microseconds) was measured by Envision (PerkinElmer).

[2] = molecular target: T1, RORγt; assay: Cofactor recruitment test (Alpha Screen, biotinylated SRC-1 peptide); assay type: biochemical; settings: read-out: Signal value inhibitory rate at test compound 1 μM (%)
Procedure: Cofactor Recruitment Test
Cofactor recruitment test was performed by Alpha Screen (Histidine Detection Kit, PerkinElmer) method. First, a test compound was diluted with an assay buffer (50 mM Tris-HCl (pH 7.5), 50 mM KCl, 1 mM DTT, 0.1% BSA) and added to a 384 well plate by 5 μL. […] The mixture was stood in a dark place for 1 hr, and the signal value was measured by Envision (PerkinElmer).

[3] = molecular target: T1, RORγt; assay: Jurkat reporter test (human IL-17 ROR response element luciferase, RORγt vector); assay type: cell-based; settings: read-out: Luminescence level inhibitory rate at test compound 3 μM (%)
Procedure: The Jurkat cells used for the reporter test were cultured in a culture medium (RPMI (Invitrogen), 10% FCS (AusGeneX), 100 U/mL penicillin, 100 μg/mL streptomycin). On the day of the test, 4×10^7 cells were recovered by a centrifugal operation (1000 rpm, 5 min.) and suspended in PBS (phosphate buffered saline) (Invitrogen). Thereafter, the cells were recovered again by a centrifugal operation, and suspended in 2 mL of R buffer (NEON transfection kit, Invitrogen). […] Gene transfer was performed by Electroporation apparatus (NEON, Invitrogen) under the conditions of pulse voltage 1350 V, interval 10 milliseconds, number of times 3. The cells after gene transfer were suspended in 40 mL of a reaction medium (RPMI, 10% Lipid reduced FCS (HyClone), 10 mM HEPES (pH 7.5), 100 U/mL penicillin, 100 μg/mL streptomycin, 5 μM lovastatin), and plated in a 96 well plate by 90 μL. A test compound diluted with the reaction medium was added by 10 μL, and the cells were cultured overnight in an incubator. Bright-Glo (Promega) was added by 100 μL, and the mixture was stirred at room temperature for 10 min, and the luminescence level was measured by Envision (PerkinElmer).

[4] = test compound 3 μM, Jurkat cells

Row | Compound | inhibition at 1 µM [1] [%] | inhibition at 1 µM [2] [%] | inhibition at 3 µM [3, 4] [%] | inhibition at 3 µM ([3]; Jurkat) [%]
1 | COc1ccc2c(c1)CCN(C(=O)c1ccc(=O)[nH]c1)C2C(=O)Nc1ccc([Si](C)(C)C)cc1 (stereo not drawn) [Example 2, 6-methoxy-2-((6-oxo-1,6-dihydropyridin-3-yl)carbonyl)-N-(4-(trimethylsilyl)phenyl)-1,2,3,4-tetrahydroisoquinoline-1-carboxamide] | 99.7 | 80.5 | – | 98.1
2 | COc1ccc2c(c1)CCN(C(=O)c1cc(O)no1)C2C(=O)Nc1ccc([Si](C)(C)C)c(F)c1 (stereo not drawn) [Example 3, N-(3-fluoro-4-(trimethylsilyl)phenyl)-2-((3-hydroxy-1,2-oxazol-5-yl)carbonyl)-6-methoxy-1,2,3,4-tetrahydroisoquinoline-1-carboxamide] | 101 | 92.7 | – | 99.6
3 | COc1ccc2c(c1)CCN(C(=O)c1ccc(=O)[nH]c1)C2C(=O)Nc1ccc([Si](C)(C)C)c(F)c1 (stereo not drawn) [Example 4, N-(3-fluoro-4-(trimethylsilyl)phenyl)-6-methoxy-2-((6-oxo-1,6-dihydropyridin-3-yl)carbonyl)-1,2,3,4-tetrahydroisoquinoline-1-carboxamide] | 101 | 81.9 | – | 99.7
4 | COc1ccc2c(c1)CCN(C(=O)c1ccc(=O)[nH]c1)[C@H]2C(=O)Nc1ccc([Si](C)(C)C)c(F)c1 [Example 8, (1R)-N-(3-fluoro-4-(trimethylsilyl)phenyl)-6-methoxy-2-((6-oxo-1,6-dihydropyridin-3-yl)carbonyl)-1,2,3,4-tetrahydroisoquinoline-1-carboxamide] | 102 | 81.2 | – | 101
5 | COc1ccc2c(c1)CCN(C(=O)c1cc(O)no1)C2C(=O)Nc1ccc(C(C)(C)C)c(F)c1 (stereo not drawn) [Example 9, N-(4-tert-butyl-3-fluorophenyl)-2-((3-hydroxy-1,2-oxazol-5-yl)carbonyl)-6-methoxy-1,2,3,4-tetrahydroisoquinoline-1-carboxamide] | 100 | 77.3 | 101 | –
6 | COc1ccc2c(c1)CCN(C(=O)c1cc(O)no1)C2C(=O)Nc1ccc(C(C)(C)C)c(Cl)c1 (stereo not drawn) [Example 10, N-(4-tert-butyl-3-chlorophenyl)-2-((3-hydroxy-1,2-oxazol-5-yl)carbonyl)-6-methoxy-1,2,3,4-tetrahydroisoquinoline-1-carboxamide] | 98.9 | 43.8 | 98.8 | –

More lines, main results first:

Row | inhibition at 1 µM [1] [%] | inhibition at 1 µM [2] [%] | inhibition at 3 µM [3, 4] [%] | Compound | inhibition at 3 µM ([3]; Jurkat) [%]
7 | 103 | 67.7 | 99.7 | COc1ccc2c(c1)CCN(C(=O)c1cc(O)no1)C2C(=O)Nc1cc(F)c2c(c1)CCC2(C)C (stereo not drawn) [Example 11, N-(7-fluoro-1,1-dimethyl-2,3-dihydro-1H-inden-5-yl)-2-((3-hydroxy-1,2-oxazol-5-yl)carbonyl)-6-methoxy-1,2,3,4-tetrahydroisoquinoline-1-carboxamide] | –
8 | 103 | 82.4 | 99.3 | COc1ccc2c(c1)CCN(C(=O)c1cc(O)no1)C2C(=O)Nc1cc(F)c(C(C)(C)C)c(F)c1 (stereo not drawn) [Example 12, N-(4-tert-butyl-3,5-difluorophenyl)-2-((3-hydroxy-1,2-oxazol-5-yl)carbonyl)-6-methoxy-1,2,3,4-tetrahydroisoquinoline-1-carboxamide] | –
9 | 102 | 83.2 | 101 | COc1ccc2c(c1)CCN(C(=O)Cc1nnc(C)o1)[C@H]2C(=O)Nc1ccc(C(C)(C)C)c(F)c1 [Example 28, (1R)-N-(4-tert-butyl-3-fluorophenyl)-6-methoxy-2-((5-methyl-1,3,4-oxadiazol-2-yl)acetyl)-1,2,3,4-tetrahydroisoquinoline-1-carboxamide] | –
10 | 102 | 88 | 102 | COc1ccc2c(c1)CCN(C(=O)Cn1cnccc1=O)[C@H]2C(=O)Nc1ccc(C(C)(C)C)c(F)c1 [Example 29, (1R)-N-(4-tert-butyl-3-fluorophenyl)-6-methoxy-2-((6-oxopyrimidin-1(6H)-yl)acetyl)-1,2,3,4-tetrahydroisoquinoline-1-carboxamide] | –

From patent US10053468B2, “Heterocyclic compound” (TAKEDA PHARMACEUTICAL COMPANY LIMITED, priority 2013, dated 2018)
